Assay results taken from ChEMBL document CHEMBL4414580, “(-)-Epigallocatechin 3-O-Gallate as a New Approach for the Treatment of Visceral Leishmaniasis” (J Nat Prod, 2019).
Activity calls are given as the source filed them. No cut-off for these calls is given here.

Legend:
[1] = system: Leishmania infantum; experiment: Antileishmanial activity against Leishmania infantum MHOM/MA/67/ITMAP263 promastigotes infected in BALB/c mouse peritoneal macrophages assessed as decrease in parasitic infection index incubated for 72 hrs by light microscopy; format: functional, organism-based
[2] = system: Leishmania infantum; experiment: Antileishmanial activity against Leishmania infantum MHOM/MA/67/ITMAP263 promastigotes infected in BALB/c mouse peritoneal macrophages assessed as decrease in parasitic infection index at 48 uM incubated for 72 hrs by light microscopy relative to control; format: functional; conditions: MHOM/MA/67/ITMAP263, 72 h
[3] = Selectivity index, ratio of CC50 for mouse peritoneal macrophages to EC50 for Leishmania infantum MHOM/MA/67/ITMAP263 promastigotes infected in BALB/c mouse peritoneal macrophages; format: toxicity; conditions: read-out: Ratio CC50/EC50
[4] = system: Leishmania infantum; experiment: (§1) Antileishmanial activity against stationary phase of Leishmania infantum MHOM/MA/67/ITMAP263 promastigotes infected in orally dosed BALB/c mouse assessed as decrease in parasitic load in liver administered via gavage bid for 5 days on 7th day post infection and measured on day 30 by limiting dilution assay; format: functional
[5] = system: Leishmania infantum; experiment: (§2) Antileishmanial activity against stationary phase of Leishmania infantum MHOM/MA/67/ITMAP263 infected in BALB/c mouse assessed as decrease in parasitic load in liver at 12.5 mg/kg/day administered orally via gavage as bid for 5 days on 7th day post infection and measured on day 30 by limiting dilution assay relative to control; format: functional; conditions: MHOM/MA/67/ITMAP263, po
[6] = system: Leishmania infantum; experiment: as §2, with “25” for “12.5”; format: functional; conditions: MHOM/MA/67/ITMAP263, po
[7] = system: Leishmania infantum; experiment: as §2, with “MHOM/MA/67/ITMAP263 promastigotes” for “MHOM/MA/67/ITMAP263”, “50” for “12.5”; format: functional; conditions: MHOM/MA/67/ITMAP263, po
[8] = system: Leishmania infantum; experiment: as §1, with “in” for “in orally dosed”, “at 50 mg Sb5+/kg/day, im once daily” for “administered via gavage bid”; format: functional, organism-based

Compound | inhibition [1] | EC50 ([1]; MHOM/MA/67/ITMAP263, 72 h) [µM] | inhibition at 48 µM [2] [%] | selectivity ratio [3] | inhibition [4] | ED50 ([4]; MHOM/MA/67/ITMAP263, po) [mg/kg/day] | ED90 ([4]; MHOM/MA/67/ITMAP263, po) [mg/kg/day] | inhibition in vivo at 12.5 mg/kg/day [5] [%] | inhibition in vivo at 25 mg/kg/day [6] [%] | inhibition in vivo at 50 mg/kg/day [7] [%] | inhibition [8]
O=C(O[C@@H]1Cc2c(O)cc(O)cc2O[C@@H]1c1cc(O)c(O)c(O)c1)c1cc(O)c(O)c(O)c1 [EPIGALOCATECHIN GALLATE] | Dose-dependent effect | 2.6 | 97.7 | 168 | Dose-dependent effect | 12.4 | 21.5 | 47.5 | 93.6 | 98.7 | –
Meglumine antimoniate | – | – | – | – | – | – | – | – | – | – | Active
